In PubChem BioAssay (NCI):
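Growth conditions: 96-well plates. Treatment: test compound, 48 hours, 5 concentrations. Analysis: linear interpolation between bracketing concentrations; unreached endpoints set to highest concentration. At the TGI there is no net growth.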

Experiments:
Experiment in all cases: NCI-60 cell line screen, 48 h
A498 renal = tested on: A498 renal
HL-60(TB) leukemia = tested on: HL-60(TB) leukemia
K-562 leukemia = tested on: K-562 leukemia
LOX IMVI melanoma = tested on: LOX IMVI melanoma
MDA-N = tested on: MDA-N
OVCAR-3 ovarian = tested on: OVCAR-3 ovarian
OVCAR-5 ovarian = tested on: OVCAR-5 ovarian
OVCAR-8 ovarian = tested on: OVCAR-8 ovarian
RXF 393 renal = tested on: RXF 393 renal
SF-539 CNS = tested on: SF-539 CNS
SW-620 colon = tested on: SW-620 colon
UACC-257 melanoma = tested on: UACC-257 melanoma
UACC-62 melanoma = tested on: UACC-62 melanoma
BT-549 breast = tested on: BT-549 breast

Structure (SMILES)	TGI (A498 renal)	TGI (HL-60(TB) leukemia)	TGI (K-562 leukemia)	TGI (LOX IMVI melanoma)	TGI (MDA-N)	TGI (OVCAR-3 ovarian)	TGI (OVCAR-5 ovarian)	TGI (OVCAR-8 ovarian)	TGI (RXF 393 renal)	TGI (SF-539 CNS)	TGI (SW-620 colon)	TGI (UACC-257 melanoma)	TGI (UACC-62 melanoma)	TGI (BT-549 breast)
CC12C3C4C1C1C2C3C41CO (configuration not stated)	> 100 µM	> 100 µM	> 100 µM	> 100 µM	> 100 µM	> 100 µM	> 100 µM	> 100 µM	> 100 µM	> 100 µM	> 100 µM	> 100 µM	> 100 µM	–
CN(CC(=O)O)c1ncc2c(n1)C=CCC2	> 100 µM	> 100 µM	> 100 µM	> 100 µM	> 100 µM	> 100 µM	> 100 µM	> 100 µM	> 100 µM	> 100 µM	> 100 µM	> 100 µM	> 100 µM	–
O=C(Nc1ccc(Cl)cc1C(F)(F)F)C(=O)C1CCCS1(=O)=O (configuration not stated)	> 100 µM	> 100 µM	> 100 µM	> 100 µM	–	> 100 µM	> 100 µM	> 100 µM	> 100 µM	> 100 µM	> 10 µM	> 100 µM	> 100 µM	–
Cc1c[n+]2c3ccccc3c3ccccc3c2s1	> 100 µM	> 61.6 µM	44.5 µM	41.9 µM	–	12.9 µM	12.8 µM	28.8 µM	0.559 µM	16.6 µM	> 75.5 µM	18.3 µM	> 47.1 µM	–
N#CCc1c(-c2ccccc2)n(S(=O)(=O)c2ccccc2)c2ccccc12	–	> 100 µM	> 100 µM	–	–	> 100 µM	> 100 µM	> 100 µM	–	> 100 µM	> 100 µM	> 100 µM	> 100 µM	–
CCOC(=O)CC1COc2ccc3c(c21)OCO3 (configuration not stated)	> 100 µM	> 100 µM	> 100 µM	> 100 µM	–	> 100 µM	> 100 µM	> 100 µM	–	> 100 µM	> 100 µM	> 100 µM	> 100 µM	–
COc1ccc(/C=C/C(=O)/C=C/c2ccc(OC)cc2OC)c(OC)c1	–	13.9 µM	8.4 µM	18.1 µM	6 µM	7.37 µM	36.5 µM	41.1 µM	37.1 µM	36.7 µM	83.6 µM	39.9 µM	52.5 µM	48 µM
COc1cc2c3cc1Oc1c(O)c(OC)cc4c1C(Cc1ccc(O)c(c1)Oc1ccc(cc1)CC3N(C)CC2)N(C)CC4 (configuration not stated)	32.2 µM	48.4 µM	10.3 µM	10.7 µM	–	30.5 µM	38.4 µM	28.4 µM	9.7 µM	5.8 µM	16.7 µM	33.4 µM	42.9 µM	–
S=C(NCCc1ccccn1)N/N=C/c1ccccn1	0.571 µM	< 0.01 µM	–	22.5 µM	> 100 µM	> 100 µM	> 100 µM	> 100 µM	12.2 µM	3.59 µM	> 100 µM	1.77 µM	4.59 µM	–
Clc1cc2nn(C3CCCCO3)nc2cc1Cl (configuration not stated)	–	–	> 100 µM	–	> 100 µM	> 100 µM	> 100 µM	> 100 µM	> 100 µM	> 100 µM	–	> 100 µM	> 100 µM	> 100 µM
COC(=O)C1CCC(=O)N1C(c1cc(OC)c(OC)c(OC)c1)c1cc(OC)c(OC)c(OC)c1 (configuration not stated)	> 100 µM	> 100 µM	> 100 µM	> 100 µM	> 100 µM	> 100 µM	> 100 µM	> 100 µM	–	> 100 µM	> 100 µM	> 100 µM	> 100 µM	–
C=CCNC(=S)N1CC(C)C(=O)Nc2cc(Cl)ccc21 (configuration not stated)	> 100 µM	> 100 µM	> 100 µM	–	–	–	> 100 µM	> 100 µM	> 100 µM	> 100 µM	–	> 100 µM	> 100 µM	–
O=C(CN(C(=O)OC12CC3CC(CC(C3)C1)C2)C(=O)OC12CC3CC(CC(C3)C1)C2)Oc1ccc([N+](=O)[O-])cc1	–	–	> 100 µM	> 100 µM	> 100 µM	> 100 µM	> 100 µM	> 100 µM	> 100 µM	> 100 µM	> 100 µM	> 100 µM	> 100 µM	> 100 µM
COC(=O)c1c(C(=O)OC)c2ccccn2c1-c1cc(OC)c(Br)c(=O)o1	> 100 µM	> 100 µM	> 100 µM	> 100 µM	> 100 µM	> 100 µM	> 100 µM	> 100 µM	> 100 µM	> 100 µM	> 100 µM	> 100 µM	> 100 µM	–
O=C(O)/C(Cl)=C(\Cl)C(=O)c1ccccc1	> 100 µM	> 100 µM	> 100 µM	> 100 µM	–	> 100 µM	> 100 µM	> 100 µM	> 100 µM	> 100 µM	> 100 µM	> 100 µM	> 100 µM	–
Cc1cc(Cl)nc2nc(Cl)c(N)cc12	–	–	> 100 µM	3.63 µM	3.63 µM	3.27 µM	34 µM	8.55 µM	> 32 µM	30.6 µM	4.08 µM	3.55 µM	5.95 µM	28.4 µM
Nc1ccc2[nH]c(-c3cccc(C(F)(F)F)c3)cc(=O)c2c1	82.9 µM	–	–	> 100 µM	–	–	> 100 µM	> 100 µM	–	53 µM	> 100 µM	> 100 µM	> 100 µM	> 100 µM
COc1cccc(/C=N/NC(=O)CSCC(=O)N/N=C/c2cccc(OC)c2OC)c1OC	> 100 µM	> 100 µM	> 100 µM	–	–	> 100 µM	> 100 µM	> 100 µM	> 100 µM	> 100 µM	> 100 µM	> 100 µM	> 100 µM	–
